Results from US20110033393A1, “Hydrazone Compounds and Their Use” (priority 2009, published 2011).

Target: T1, human TRPM5 ion channel (Homo sapiens, UniProt Q9NZQ8)
T1 sequence (Q9NZQ8 1-1165): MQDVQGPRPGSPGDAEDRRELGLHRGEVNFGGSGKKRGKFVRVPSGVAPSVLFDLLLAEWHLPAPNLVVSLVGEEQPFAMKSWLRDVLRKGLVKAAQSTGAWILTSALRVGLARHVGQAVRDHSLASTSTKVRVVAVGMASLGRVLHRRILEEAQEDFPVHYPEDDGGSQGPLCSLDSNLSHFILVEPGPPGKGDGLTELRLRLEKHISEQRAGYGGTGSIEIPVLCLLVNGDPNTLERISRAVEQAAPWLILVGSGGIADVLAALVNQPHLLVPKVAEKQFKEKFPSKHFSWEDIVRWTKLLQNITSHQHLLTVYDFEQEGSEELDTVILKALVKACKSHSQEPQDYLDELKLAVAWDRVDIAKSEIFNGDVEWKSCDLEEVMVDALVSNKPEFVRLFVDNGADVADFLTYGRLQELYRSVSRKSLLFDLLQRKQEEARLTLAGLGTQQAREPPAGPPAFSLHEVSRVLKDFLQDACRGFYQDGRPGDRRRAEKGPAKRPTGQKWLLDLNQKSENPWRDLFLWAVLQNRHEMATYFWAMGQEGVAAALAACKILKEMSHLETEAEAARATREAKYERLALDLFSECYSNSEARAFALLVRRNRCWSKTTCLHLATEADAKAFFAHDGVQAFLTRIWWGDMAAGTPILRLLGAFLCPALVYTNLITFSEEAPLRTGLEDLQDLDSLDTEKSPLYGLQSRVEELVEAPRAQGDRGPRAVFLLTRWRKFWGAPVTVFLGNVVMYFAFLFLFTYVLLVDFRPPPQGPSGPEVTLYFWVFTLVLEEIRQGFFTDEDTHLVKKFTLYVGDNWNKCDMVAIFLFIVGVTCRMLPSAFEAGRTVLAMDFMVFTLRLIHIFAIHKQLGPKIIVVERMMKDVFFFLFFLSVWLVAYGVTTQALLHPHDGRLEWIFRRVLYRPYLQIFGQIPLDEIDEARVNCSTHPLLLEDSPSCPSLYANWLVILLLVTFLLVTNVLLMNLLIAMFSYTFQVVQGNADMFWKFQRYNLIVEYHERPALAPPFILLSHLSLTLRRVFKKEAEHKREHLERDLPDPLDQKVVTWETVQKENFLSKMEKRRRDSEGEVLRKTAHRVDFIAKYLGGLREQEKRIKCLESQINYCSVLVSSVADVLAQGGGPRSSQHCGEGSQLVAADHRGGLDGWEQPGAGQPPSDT
Test: FLIPR-based assay for membrane potential and calcium mobilization (TRPM5 inhibiting activity)
Assay type: cell-based
Conditions: live cells, 30° C., read-out: hTrpM5 IC50
Procedure, shortened: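 Live cells expressing human TRPM5, assayed at 30 °C by FLIPR readout of membrane potential and calcium mobilization. Ten serial 2- or 3-fold dilutions from no more than 100 μM. IC50 derived by curve fitting of concentration-effect data.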

With `Cc1cc(/C=N/NC(=O)C2CC2c2ccccc2)cc2cccnc12` (racemic) [Example 10, trans-N′-((8-Methylquinolin-6-yl)methylene)-2-phenylcyclopropanecarbohydrazide] the IC50 was 420 nM.
